Assay results published in US12077503B2, “Substituted cyclic amides and their use as herbicides” (FMC CORPORATION, priority 2015, dated 2024).

Tests used:
Assay in all cases: Test C preemergence
Assay type in all cases: in vivo
[1] = system: morningglory (Ipomoea coccinea); details: for Plant response rating, Morningglory: scale 0 to 100, 0 no effect, 100 complete control
In short: (§1)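 Preemergence application to seeds in loam/sand soil, or foliar (postemergence) application to plants 2–18 cm tall in peat moss/vermiculite medium; surfactant-containing non-phytotoxic solvent vehicle; greenhouse. Visual injury vs controls at 13–15 d; 0 = no effect, 100 = complete control.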

[2] = system: pigweed (Amaranthus retroflexus); details: for Plant response rating, Pigweed: scale 0 to 100, 0 no effect, 100 complete control
In short: as §1

[3] = system: johnsongrass (Sorghum halepense); details: for Plant response rating, Johnsongrass: scale 0 to 100, 0 no effect, 100 complete control
In short: as §1

[4] = system: nutsedge, yellow (yellow nutsedge, Cyperus esculentus); details: for Plant response rating, Nutsedge, Yellow: scale 0 to 100, 0 no effect, 100 complete control
In short: as §1

[5] = system: velvetleaf (Abutilon theophrasti); details: for Plant response rating, Velvetleaf: scale 0 to 100, 0 no effect, 100 complete control
In short: as §1

[6] = system: Galium (catchweed bedstraw, Galium aparine); details: for Plant response rating, Galium: scale 0 to 100, 0 no effect, 100 complete control
In short: as §1

[7] = system: corn (Zea mays); details: for Plant response rating, Corn: scale 0 to 100, 0 no effect, 100 complete control
In short: as §1

[8] = system: foxtail, giant (giant foxtail, Setaria faberii); details: for Plant response rating, Foxtail, Giant: scale 0 to 100, 0 no effect, 100 complete control
In short: as §1

[9] = system: crabgrass, large (large crabgrass, Digitaria sanguinalis); details: for Plant response rating, Crabgrass, Large: scale 0 to 100, 0 no effect, 100 complete control
In short: as §1

[10] = system: barnyardgrass (Echinochloa crus-galli); details: for Plant response rating, Barnyardgrass: scale 0 to 100, 0 no effect, 100 complete control
In short: as §1

[11] = system: blackgrass (Alopecurus myosuroides); details: for Plant response rating, Blackgrass: scale 0 to 100, 0 no effect, 100 complete control
In short: as §1

[12] = system: ryegrass, Italian (Italian ryegrass, Lolium multiflorum); details: for Plant response rating, Ryegrass, Italian: scale 0 to 100, 0 no effect, 100 complete control
In short: as §1

[13] = system: lambsquarters (Chenopodium album); details: for Plant response rating, Lambsquarters: scale 0 to 100, 0 no effect, 100 complete control
In short: as §1

[14] = system: waterhemp (common waterhemp, Amaranthus rudis); details: for Plant response rating, Waterhemp: scale 0 to 100, 0 no effect, 100 complete control
In short: as §1

[15] = system: wheat (winter wheat, Triticum aestivum); details: for Plant response rating, Wheat: scale 0 to 100, 0 no effect, 100 complete control
In short: as §1

[16] = system: soybean (Glycine max)
In short: as §1

[17] = system: ragweed (common ragweed, Ambrosia elatior); details: for Plant response rating, Ragweed: scale 0 to 100, 0 no effect, 100 complete control
In short: as §1

[18] = system: oilseed rape (Brassica napus); details: for Plant response rating, Oilseed Rape: scale 0 to 100, 0 no effect, 100 complete control
In short: as §1

[19] = 31 g ai/ha, 0 is no effect, 100 is complete control

## CC(C)Oc1cccc(C2CN(C)C(=O)C2C(=O)Nc2cccc(F)c2F)c1 (stereo not shown) [Compound 651]
[1]; [19]
  Plant response rating (scale of 0 to 100), Morningglory: 0
[1]; 62 g ai/ha
  Plant response rating, Morningglory: 0
[1]; 125 g ai/ha
  Plant response rating, Morningglory: 0
[1]; 250 g ai/ha
  Plant response rating, Morningglory: 0
[2]; [19]
  Plant response rating (scale of 0 to 100), Pigweed: 35
[2]; 62 g ai/ha
  Plant response rating, Pigweed: 40
[2]; 125 g ai/ha
  Plant response rating, Pigweed: 50
[2]; 250 g ai/ha
  Plant response rating, Pigweed: 85
[3]; [19]
  Plant response rating (scale of 0 to 100), Johnsongrass: 20
[3]; 62 g ai/ha
  Plant response rating, Johnsongrass: 50
[3]; 125 g ai/ha
  Plant response rating, Johnsongrass: 70
[3]; 250 g ai/ha
  Plant response rating, Johnsongrass: 80
[4]; [19]
  Plant response rating (scale of 0 to 100), Nutsedge, Yellow: 0
[4]; 62 g ai/ha
  Plant response rating, Nutsedge, Yellow: 0
[4]; 125 g ai/ha
  Plant response rating, Nutsedge, Yellow: 0
[4]; 250 g ai/ha
  Plant response rating, Nutsedge, Yellow: 0
[5]; [19]
  Plant response rating (scale of 0 to 100), Velvetleaf: 25
[5]; 62 g ai/ha
  Plant response rating, Velvetleaf: 45
[5]; 125 g ai/ha
  Plant response rating, Velvetleaf: 70
[5]; 250 g ai/ha
  Plant response rating, Velvetleaf: 70
[6]; [19]
  Plant response rating (scale of 0 to 100), Galium: 60
[6]; 62 g ai/ha
  Plant response rating, Galium: 50
[6]; 125 g ai/ha
  Plant response rating, Galium: 90
[6]; 250 g ai/ha
  Plant response rating, Galium: 90
[7]; [19]
  Plant response rating (scale of 0 to 100), Corn: 25
[7]; 62 g ai/ha
  Plant response rating, Corn: 55
[7]; 125 g ai/ha
  Plant response rating, Corn: 70
[7]; 250 g ai/ha
  Plant response rating, Corn: 70
[8]; [19]
  Plant response rating (scale of 0 to 100), Foxtail, Giant: 95
[8]; 62 g ai/ha
  Plant response rating, Foxtail, Giant: 98
[8]; 125 g ai/ha
  Plant response rating, Foxtail, Giant: 98
[8]; 250 g ai/ha
  Plant response rating, Foxtail, Giant: 100
[9]; [19]
  Plant response rating (scale of 0 to 100), Crabgrass, Large: 98
[9]; 62 g ai/ha
  Plant response rating, Crabgrass, Large: 100
[9]; 125 g ai/ha
  Plant response rating, Crabgrass, Large: 100
[9]; 250 g ai/ha
  Plant response rating, Crabgrass, Large: 100
[10]; [19]
  Plant response rating (scale of 0 to 100), Barnyardgrass: 95
[10]; 62 g ai/ha
  Plant response rating, Barnyardgrass: 98
[10]; 125 g ai/ha
  Plant response rating, Barnyardgrass: 100
[10]; 250 g ai/ha
  Plant response rating, Barnyardgrass: 100
[11]; [19]
  Plant response rating (scale of 0 to 100), Blackgrass: 40
[11]; 62 g ai/ha
  Plant response rating, Blackgrass: 45
[11]; 125 g ai/ha
  Plant response rating, Blackgrass: 60
[11]; 250 g ai/ha
  Plant response rating, Blackgrass: 85
[12]; [19]
  Plant response rating (scale of 0 to 100), Ryegrass, Italian: 15
[12]; 62 g ai/ha
  Plant response rating, Ryegrass, Italian: 40
[12]; 125 g ai/ha
  Plant response rating, Ryegrass, Italian: 75
[12]; 250 g ai/ha
  Plant response rating, Ryegrass, Italian: 85
[13]; [19]
  Plant response rating (scale of 0 to 100), Lambsquarters: 35
[13]; 62 g ai/ha
  Plant response rating, Lambsquarters: 55
[13]; 125 g ai/ha
  Plant response rating, Lambsquarters: 85
[13]; 250 g ai/ha
  Plant response rating, Lambsquarters: 100
[14]; [19]
  Plant response rating (scale of 0 to 100), Waterhemp: 20
[14]; 62 g ai/ha
  Plant response rating, Waterhemp: 40
[14]; 125 g ai/ha
  Plant response rating, Waterhemp: 50
[14]; 250 g ai/ha
  Plant response rating, Waterhemp: 85
[15]; [19]
  Plant response rating (scale of 0 to 100), Wheat: 50
[15]; 62 g ai/ha
  Plant response rating, Wheat: 50
[15]; 125 g ai/ha
  Plant response rating, Wheat: 55
[15]; 250 g ai/ha
  Plant response rating, Wheat: 75
[16]; [19]
  Plant response rating (scale of 0 to 100), Soybean: 5
[16]; 125 g ai/ha, scale 0 to 100, 0 no effect, 100 complete control
  Plant response rating, Soybean: 0
[17]; [19]
  Plant response rating (scale of 0 to 100), Ragweed: 20
[17]; 62 g ai/ha
  Plant response rating, Ragweed: 25
[17]; 125 g ai/ha
  Plant response rating, Ragweed: 60
[17]; 250 g ai/ha
  Plant response rating, Ragweed: 85
[18]; [19]
  Plant response rating (scale of 0 to 100), Oilseed Rape: 75
[18]; 62 g ai/ha
  Plant response rating, Oilseed Rape: 80
[18]; 125 g ai/ha
  Plant response rating, Oilseed Rape: 90
[18]; 250 g ai/ha
  Plant response rating, Oilseed Rape: 90
